Reference: publication PMC5314961 (Bioorganic & medicinal chemistry letters, 2017)
Entries after “also recorded” stand apart in the source; their conditions may differ.

How the values were obtained:
[1] = system: HBV; assay: Anti-HBV activity in HepAD38 cells, HBV DNA replication by real-time PCR; assay type: cell-based, Hepatitis B virus; details: for anti-HBV activity (result in words): HepAD38 system, concentrations up to 10 µM
[2] = system: HBV; details: literature report; cited from earlier work

Row | SMILES | anti-HBV activity (result in words) [1] | inhibitor of HBV replication (reported in the literature) [2] | EC50 ([1]; Hepatitis B virus, HePAD38, read-out: Anti-HBV activity, EC50, HepAD38 cells, inhibition of HBV DNA replication by 50%, tested 0.001 to 10 µM, duplicate) [µM]
1 | CC1=C(Cl)C(c2ccc(F)cc2Cl)N=C(c2ccccn2)N1 (stereo not drawn) [Compound 26c] | none of them showed activity; also recorded: inactive |  | 
2 | CC1=C(C(=O)OCC(F)(F)F)C(c2ccc(F)cc2Cl)N=C(c2ccccn2)N1 (stereo not drawn) [Compound 26e] | none of them showed activity |  | 
3 | CC1=C(C(=O)NS(=O)(=O)N(C)C)C(c2ccc(F)cc2Cl)N=C(c2ccccn2)N1 (stereo not drawn) [Compound 26f] | none of them showed activity |  | 
4 | CC1(C)CC(=O)C2=C(C1)NC(c1cccnc1)=NC2c1ccc(F)cc1Cl (stereo not drawn) [Compound 1, reference compound] | did not express any activity | submicromolar inhibitor | 
5 | COC(=O)C1=C(CN=[N+]=[N-])NC(c2ccccn2)=NC1c1ccc(F)cc1Cl (stereo not drawn) [Compound 21d] |  |  | 7.5
